Values of other authors in patent publication US20180110939A1, “METHOD, SYSTEM AND APPARATUS FOR CONTROLLED DELIVERY OF OPIOID AND OTHER MEDICATIONS” (Somniferum Labs LLC, priority 2016, published 2018).

Key:
[1] = converted via the liver
[2] = for share of the total area under the concentration-time curve of morphine and its principle metabolites: following intravenous (IV) morphine administration in humans
[3] = in vivo
[4] = in vivo; remark: listed apart in the source

| SMILES | amount generated relative to M-6-G from a given amount of morphine [1] [times] | share of the total area under the concentration-time curve of morphine and its principle metabolites [2] | plasma concentrations higher than morphine [3] | LD50 (lethal dose) [4] | plasma protein binding | time from which M-6-G was present in higher concentrations than morphine ([2]; following IV administration, h.p.l.c. method) [h] |
| --- | --- | --- | --- | --- | --- | --- |
| CN1CC[C@]23c4c5ccc(O[C@@H]6O[C@H](C(=O)O)[C@@H](O)[C@H](O)[C@H]6O)c4O[C@H]2[C@@H](O)C=C[C@H]3[C@H]1C5 [M-3-G, morphine-3-glucuronide, reference compound] | 5 | approximately 75% |  |  |  |  |
| CN1CC[C@]23c4c5ccc(O)c4O[C@H]2[C@@H](O[C@@H]2O[C@H](C(=O)O)[C@@H](O)[C@H](O)[C@H]2O)C=C[C@H]3[C@H]1C5 [M-6-G, morphine-6-glucuronide] |  | 15% | approximately 4 fold | no LD50 | low | ≥ 1 |
